Molecular target: T1, human GABA A receptor α5β3γ2 (Homo sapiens, UniProt P18507+P31644)
T1 construct: expressed in transfected cells; host or cells: HEK293 cells, transiently transfected; membranes prepared from them
Experiment: [3H]flumazenil competition binding, HEK293 cells expressing human GABA A α5β3γ2 receptors
Conditions: human α5β3γ2 in HEK293 (transiently transfected), 0.5 nM [3H]flumazenil, mean of two determinations; read-out: Ki[nM] hα5
Experimental: Membrane Preparation and Binding Assay
The affinity of compounds at GABA A receptor subtypes was measured by competition for [3H]flumazenil (85 Ci/mmol; Roche) binding to HEK293 cells expressing rat (stably transfected) or human (transiently transfected) receptors of composition α1β3γ2, α2β3γ2, α3β3γ2 and α5β3γ2.
Cell pellets were suspended in Krebs-tris buffer (4.8 mM KCl, 1.2 mM CaCl2, 1.2 mM MgCl2, 120 mM NaCl, 15 mM Tris; pH 7.5; binding assay buffer), homogenized by polytron for ca. 20 sec on ice and centrifuged for 60 min at 4° C. (50000 g; Sorvall, rotor: SM24=20000 rpm). The cell pellets were resuspended in Krebs-tris buffer and homogenized by polytron for ca. 15 sec on ice. Protein was measured (Bradford method, Bio-Rad) and aliquots of 1 mL were prepared and stored at −80° C.
Radioligand binding assays were carried out in a volume of […] (96-well plates) which contained […] of cell memebranes, [3H]flumazenil at a concentration of 1 nM for α1, α2, α3 subunits and 0.5 nM for α5 subunits and the test compound in the range of […]. Nonspecific binding was defined by 10^−5 M diazepam and typically represented less than 5% of the total binding. Assays were incubated to equilibrium for 1 hour at 4° C. and harvested onto GF/C uni-filters (Packard) by filtration using a Packard harvester and washing with ice-cold wash buffer (50 mM Tris; pH 7.5). After drying, filter-retained radioactivity was detected by liquid scintillation counting. Ki values were calculated using Excel-Fit (Microsoft) and are the means of two determinations.

## (5-Methoxy-benzofuran-2-yl)-(5-methyl-3-phenyl-isoxazol-4-yl)-methanone [Example 21]
  Ki: 1.4 nM
